Experimental data: ChEMBL document CHEMBL3272121, “Hypolipidemic analogues of ethyl 4-benzyloxybenzoate” (J Med Chem, 1977)

Assays:
Rattus norvegicus [1] = assay: Toxicity in CFY Sprague-Dawley rat assessed as body weight gain at 0.25% dietary level administered for 7 days relative to control; type: organism-based; conditions: in vivo, po, 168 h
Rattus norvegicus [2] = assay: Hypolipidemic activity in CFY Sprague-Dawley rat assessed as liver lipid per gm of liver at 0.1% dietary level administered for 7 days relative to control; type: functional
Rattus norvegicus [3] = assay: Toxicity in CFY Sprague-Dawley rat assessed as relative liver weight at 0.25% dietary level administered for 7 days relative to control; type: organism-based; conditions: in vivo, po, 168 h
Rattus norvegicus [4] = assay: Toxicity in CFY Sprague-Dawley rat assessed as body weight gain at 0.1% dietary level administered for 7 days relative to control; type: organism-based; conditions: in vivo, po, 168 h
Rattus norvegicus [5] = assay: Hypolipidemic activity in CFY Sprague-Dawley rat assessed as serum cholesterol level at 0.25% dietary level administered for 7 days relative to control; type: functional
Rattus norvegicus [6] = assay: Hypolipidemic activity in CFY Sprague-Dawley rat assessed as serum triglyceride level at 0.1% dietary level administered for 7 days relative to control; type: functional
Rattus norvegicus [7] = assay: Toxicity in CFY Sprague-Dawley rat assessed as relative liver weight at 0.1% dietary level administered for 7 days relative to control; type: organism-based; conditions: in vivo, po, 168 h
Rattus norvegicus [8] = assay: Hypolipidemic activity in CFY Sprague-Dawley rat assessed as liver lipid per gm of liver at 0.25% dietary level administered for 7 days relative to control; type: functional
Rattus norvegicus [9] = assay: Hypolipidemic activity in CFY Sprague-Dawley rat assessed as serum cholesterol level at 0.1% dietary level administered for 7 days relative to control; type: functional
Rattus norvegicus [10] = assay: Hypolipidemic activity in CFY Sprague-Dawley rat assessed as serum triglyceride level at 0.25% dietary level administered for 7 days relative to control; type: functional
Liver [11] = assay: Inhibition of fatty acid biosynthesis from [1-14C]acetate in rat liver slices at 5 X 10^-4 M relative to control; type: functional
Liver [12] = assay: Inhibition of cholesterol biosynthesis from [1-14C]acetate in rat liver slices at […] relative to control; type: functional
Rattus norvegicus [13] = assay: Hypolipidemic activity in CFY Sprague-Dawley rat assessed as liver lipid per gm of liver at 1% dietary level administered for 7 days relative to control; type: functional
Liver [14] = assay: Inhibition of cholesterol biosynthesis from [1-14C]acetate in rat liver slices at 1 X 10^-4 M relative to control; type: functional
Rattus norvegicus [15] = assay: Hypolipidemic activity in CFY Sprague-Dawley rat assessed as liver lipid per gm of liver at 0.2% dietary level administered for 7 days relative to control; type: functional
Rattus norvegicus [16] = assay: Toxicity in CFY Sprague-Dawley rat assessed as relative liver weight at 0.2% dietary level administered for 7 days relative to control; type: organism-based; conditions: in vivo, po, 168 h
Liver [17] = assay: Inhibition of fatty acid biosynthesis from [1-14C]acetate in rat liver slices at 1 X 10^-4 M relative to control; type: functional
Rattus norvegicus [18] = assay: Toxicity in CFY Sprague-Dawley rat assessed as body weight gain at 0.2% dietary level administered for 7 days relative to control; type: organism-based; conditions: in vivo, po, 168 h
Rattus norvegicus [19] = assay: Hypolipidemic activity in CFY Sprague-Dawley rat assessed as serum cholesterol level at 0.2% dietary level administered for 7 days relative to control; type: functional
Rattus norvegicus [20] = assay: Toxicity in CFY Sprague-Dawley rat assessed as relative liver weight at 1% dietary level administered for 7 days relative to control; type: organism-based; conditions: in vivo, po, 168 h
Rattus norvegicus [21] = assay: Hypolipidemic activity in CFY Sprague-Dawley rat assessed as serum cholesterol level at 1% dietary level administered for 7 days relative to control; type: functional
Rattus norvegicus [22] = assay: Hypolipidemic activity in CFY Sprague-Dawley rat assessed as serum triglyceride level at 0.2% dietary level administered for 7 days relative to control; type: functional
Rattus norvegicus [23] = assay: Hypolipidemic activity in CFY Sprague-Dawley rat assessed as serum triglyceride level at 1% dietary level administered for 7 days relative to control; type: functional
Rattus norvegicus [24] = assay: Toxicity in CFY Sprague-Dawley rat assessed as body weight gain at 1% dietary level administered for 7 days relative to control; type: organism-based; conditions: in vivo, po, 168 h
Rattus norvegicus [25] = assay: Hypolipidemic activity in CFY Sprague-Dawley rat assessed as liver lipid per gm of liver at 0.5% dietary level administered for 7 days relative to control; type: functional
Rattus norvegicus [26] = assay: Hypolipidemic activity in CFY Sprague-Dawley rat assessed as serum cholesterol level at 0.5% dietary level administered for 7 days relative to control; type: functional
Rattus norvegicus [27] = assay: Toxicity in CFY Sprague-Dawley rat assessed as relative liver weight at 0.5% dietary level administered for 7 days relative to control; type: organism-based; conditions: in vivo, po, 168 h
Rattus norvegicus [28] = assay: Hypolipidemic activity in CFY Sprague-Dawley rat assessed as serum triglyceride level at 0.5% dietary level administered for 7 days relative to control; type: functional
Rattus norvegicus [29] = assay: Toxicity in CFY Sprague-Dawley rat assessed as body weight gain at 0.5% dietary level administered for 7 days relative to control; type: organism-based; conditions: in vivo, po, 168 h
Liver [30] = assay: Inhibition of fatty acid biosynthesis from [1-14C]acetate in rat liver slices at 1 X 10^-3 M relative to control; type: functional
Liver [31] = assay: Inhibition of cholesterol biosynthesis from [1-14C]acetate in rat liver slices at 1 X 10^-3 M relative to control; type: functional

Structure (SMILES) | Activity (Rattus norvegicus [1]) [%] | Activity (Rattus norvegicus [3]) [%] | Activity (Rattus norvegicus [5]) [%] | Activity (Rattus norvegicus [8]) [%] | Activity (Rattus norvegicus [10]) [%] | inhibition at 500 µM (Liver [11]) [%] | inhibition at 500 µM (Liver [12]) [%] | Activity (Rattus norvegicus [13]) [%] | Activity (Rattus norvegicus [15]) [%] | Activity (Rattus norvegicus [16]) [%] | Activity (Rattus norvegicus [18]) [%] | Activity (Rattus norvegicus [19]) [%] | Activity (Rattus norvegicus [20]) [%] | Activity (Rattus norvegicus [21]) [%] | Activity (Rattus norvegicus [22]) [%] | Activity (Rattus norvegicus [23]) [%] | Activity (Rattus norvegicus [24]) [%] | other results
CCOC(=O)Cc1ccc(OCc2ccc(C)cc2)cc1 | -18 | 20 | -45 | 5 | -68 |  |  |  |  |  |  |  |  |  |  |  |  | Activity (Rattus norvegicus [2]): 0%; Activity (Rattus norvegicus [4]): 16%; Activity (Rattus norvegicus [6]): -49%; Activity (Rattus norvegicus [7]): 9%; Activity (Rattus norvegicus [9]): -8%
CCOC(=O)c1ccc(OCc2ccccc2[N+](=O)[O-])cc1 | 8 | 12 | -20 | 3 | -21 | 69 | 82 |  |  |  |  |  |  |  |  |  |  | 
CCOC(=O)Cc1ccc(OCc2ccccc2)cc1 | -23 | 28 | -18 | 65 | -84 | 100 | 93 |  |  |  |  |  |  |  |  |  |  | 
CCOC(=O)Cc1ccc(OCc2ccccc2OC)cc1 | 6 | 4 | -24 | 7 | -57 |  |  | 20 | 5 | 8 | 6 | -22 | 19 | -21 | -64 | -53 | -16 | inhibition at 100 µM (Liver [14]): 57%; inhibition at 100 µM (Liver [17]): 48%
CCOC(=O)c1ccc(OCc2ccccc2)cc1 | 1 | 8 | -17 | 2 | -61 | 91 | 68 | 9 | -3 | 8 | -8 | -20 | 37 | -20 | -67 | -29 | -45 | inhibition at 100 µM (Liver [14]): 42%; inhibition at 100 µM (Liver [17]): -7%; Activity (Rattus norvegicus [2]): 0%; Activity (Rattus norvegicus [4]): 6%; Activity (Rattus norvegicus [25]): 10%; Activity (Rattus norvegicus [26]): -18%; Activity (Rattus norvegicus [27]): 22%; Activity (Rattus norvegicus [6]): -14%; Activity (Rattus norvegicus [7]): 9%; Activity (Rattus norvegicus [28]): -41%; Activity (Rattus norvegicus [9]): -9%; Activity (Rattus norvegicus [29]): -40%
CCOC(=O)CCc1ccc(OCc2ccc(F)cc2)cc1 | -1 | -5 | -20 | 7 | -43 |  |  |  |  |  |  |  |  |  |  |  |  | inhibition at 100 µM (Liver [14]): 87%; inhibition at 100 µM (Liver [17]): 82%; Activity (Rattus norvegicus [25]): 8%; Activity (Rattus norvegicus [26]): -19%; Activity (Rattus norvegicus [27]): 15%; Activity (Rattus norvegicus [28]): -59%; Activity (Rattus norvegicus [29]): 4%
CCOC(=O)c1ccc(OCc2ccc(F)cc2)cc1 | 9 | 8 | -31 | 1 | -48 | 12 | 86 |  |  |  |  |  |  |  |  |  |  | 
CCC(C(=O)O)c1ccccc1 (stereo unspecified) |  |  |  |  |  |  |  |  |  |  |  |  |  |  |  |  |  | inhibition at 1000 µM (Liver [30]): 7%; inhibition at 1000 µM (Liver [31]): 30%
CCOC(=O)Cc1ccc(OCc2ccc(Cl)cc2)cc1 | -10 | 14 | -28 | 8 | -91 | 59 | 68 |  |  |  |  |  |  |  |  |  |  | 
CCOC(=O)c1ccc(OCc2ccc(C)cc2)cc1 | -4 | 4 | -18 | 1 | -54 | 47 | 47 | 3 | -7 | 2 | 14 | -17 | 19 | -13 | -42 | -46 | -19 | 
O=C(O)c1ccc(OCc2ccccc2)cc1 | -5 | 10 | -23 | -4 | -65 | 65 | 92 | 1 | 8 | 0 | -13 | -14 | 50 | -24 | -50 | -34 | -62 | 
CCOC(=O)c1ccc(OCc2ccc(Br)cc2)cc1 | 1 | 10 | -29 | 0 | -52 | 84 | 98 | 4 | -2 | 8 | 17 | -23 | 20 | -24 | -62 | -39 | -8 | 
CCCc1ccc(OCc2ccccc2)c(OC)c1 | 0 | 17 | 15 | 4 | 12 | 3 | 34 |  |  |  |  |  |  |  |  |  |  | 
